Assays:
[1] = target: T1, Peroxisome proliferator-activated receptor gamma (Homo sapiens, UniProt P37231); assay: Binding affinity to GAL4-DBD-fused PPARgamma ligand binding domain (unknown origin) expressed in HEK293T cells by spectra-fluorophotometry analysis
T1 sequence (P37231 whole entry): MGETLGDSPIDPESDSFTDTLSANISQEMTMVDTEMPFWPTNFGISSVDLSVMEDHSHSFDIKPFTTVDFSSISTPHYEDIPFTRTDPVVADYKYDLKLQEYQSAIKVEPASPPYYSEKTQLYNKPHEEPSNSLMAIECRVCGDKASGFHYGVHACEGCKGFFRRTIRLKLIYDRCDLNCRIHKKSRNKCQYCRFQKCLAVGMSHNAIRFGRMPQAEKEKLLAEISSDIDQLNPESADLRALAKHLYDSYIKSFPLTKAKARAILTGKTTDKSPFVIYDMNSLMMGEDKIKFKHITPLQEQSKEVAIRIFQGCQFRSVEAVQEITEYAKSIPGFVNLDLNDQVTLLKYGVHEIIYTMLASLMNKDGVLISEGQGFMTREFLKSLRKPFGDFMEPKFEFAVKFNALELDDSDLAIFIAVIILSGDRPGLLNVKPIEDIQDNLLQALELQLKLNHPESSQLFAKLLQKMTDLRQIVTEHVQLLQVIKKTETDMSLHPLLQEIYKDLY

[2] = target: T1, Peroxisome proliferator-activated receptor gamma; assay: Partial agonist activity at GAL4 DBD-fused PPARgamma LBD (unknown origin) expressed in pG5 luc and pBIND transfected HEK293T cells assessed as transcriptional activation incubated for 12 hrs by fluorescence based luciferase assay
[3] = target: T2, Prostaglandin G/H synthase 2 (Homo sapiens, UniProt P35354)
T2 sequence (P35354 whole entry): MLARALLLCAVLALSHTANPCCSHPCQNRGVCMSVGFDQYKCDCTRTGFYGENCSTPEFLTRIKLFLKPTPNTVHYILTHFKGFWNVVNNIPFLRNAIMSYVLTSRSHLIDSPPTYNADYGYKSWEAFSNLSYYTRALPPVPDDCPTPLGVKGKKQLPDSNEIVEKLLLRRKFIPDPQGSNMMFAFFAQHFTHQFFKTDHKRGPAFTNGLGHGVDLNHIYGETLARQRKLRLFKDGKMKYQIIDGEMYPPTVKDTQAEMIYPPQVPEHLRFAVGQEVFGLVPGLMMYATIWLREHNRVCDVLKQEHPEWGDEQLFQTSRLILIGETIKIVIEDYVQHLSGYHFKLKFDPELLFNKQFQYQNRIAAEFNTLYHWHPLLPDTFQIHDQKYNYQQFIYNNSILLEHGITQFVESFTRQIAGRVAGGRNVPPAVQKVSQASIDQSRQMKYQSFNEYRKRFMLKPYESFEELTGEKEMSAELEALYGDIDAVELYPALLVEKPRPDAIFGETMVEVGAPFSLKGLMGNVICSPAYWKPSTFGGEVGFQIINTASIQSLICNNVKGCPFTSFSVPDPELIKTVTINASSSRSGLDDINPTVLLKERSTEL

SMILES	Kd [1]	EC50 [2]	IC50 [3]
CC1=C(CC(=O)O)c2cc(F)ccc2/C1=C\c1ccc([S+](C)[O-])cc1 (configuration not stated)	> 100 µM	22.7 µM	–
COc1cccc(/C=C2/C(C)=C(CC(=O)O)c3cc(F)ccc32)c1	2.46 µM	5.3 µM	–
CC1=C(CC(=O)O)c2cc(F)ccc2/C1=C\c1ccc(C(C)C)cc1	> 100 µM	> 50 µM	–
CC1=C(CC(=O)O)c2cc(F)ccc2/C1=C\c1ccc(Oc2ccccc2)cc1	> 100 µM	> 50 µM	–
CC1=C(CC(=O)O)c2ccccc2/C1=C/c1cccc(C)c1	> 100 µM	> 50 µM	–
CC1=C(CC(=O)O)c2ccccc2/C1=C\c1cccc(C)c1	> 100 µM	> 50 µM	–
CC1=C(CC(=O)O)c2cc(F)ccc2/C1=C\c1cccc(OCc2ccccc2)c1	–	–	286 µM
CC1=C(CC(=O)O)c2cc(F)ccc2/C1=C\c1ccc(OCc2ccccc2)cc1	> 100 µM	> 50 µM	–
CC1=C(CC(=O)O)c2cc(F)ccc2/C1=C\c1ccc(F)cc1	6.67 µM	11.7 µM	–
